Source: patent US8710063B2, “Purine compounds used as CB2 agonists” (priority 2010, dated 2014)
Structures can show the parent of a compound that is named as a salt.

Key:
rat CB2 receptor = molecular target: T1, rat CB2 receptor (Rattus norvegicus, UniProt Q9QZN9); assay: Displacement of 3H-CP55940 from rat CB2 receptors; format: binding; conditions: displacement of 3H-CP55940, rat CB2 membrane homogenates
T1 construct: expressed in transfected cells
T1 sequence (Q9QZN9 1-360): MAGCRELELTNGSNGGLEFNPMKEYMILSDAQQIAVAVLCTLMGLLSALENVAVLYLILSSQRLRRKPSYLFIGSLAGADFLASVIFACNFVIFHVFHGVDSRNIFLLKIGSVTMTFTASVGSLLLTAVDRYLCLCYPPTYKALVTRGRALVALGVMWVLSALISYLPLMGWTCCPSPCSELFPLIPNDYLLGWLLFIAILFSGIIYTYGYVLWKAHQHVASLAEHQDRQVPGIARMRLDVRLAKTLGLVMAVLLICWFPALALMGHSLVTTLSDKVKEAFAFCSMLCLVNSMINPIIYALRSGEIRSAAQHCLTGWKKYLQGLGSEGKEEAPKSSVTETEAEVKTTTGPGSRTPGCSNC
Protocol: (§1) Displacement of 3H-CP55940 from Human and Rat CB2 Receptors
(§2) The methods of Felder et al. (Mol. Pharmaocol. 48:443-450, 1995) were utilized with minor modifications. Specifically, membrane homogenates from cells stably or transiently expressing the human or rat CB2 receptor were washed by centrifugation and diluted into a 50 mM Tris HCl (pH 7.4), 5 mM MgCl2, 2.5 mM EDTA, and 0.1% BSA buffer. Specific binding of 3H-CP55940 was defined with 1 μM CP55940. The ability of compounds to displace specific 3H-CP55940 binding was tested over a range of concentrations in the Tris, MgCl2, EDTA, BSA buffer in the presence of 1% dimethyl sulfoxide by incubating at room temperature for 90 minutes in a volume of 300 μl. Unifilter 96-well microplates pretreated with 0.5% polyvinylpyrrolidone, 0.1% polysorbate 20 in water were washed three times with cold Tris buffer. The reaction mixture was then transferred to the filter plate immediately before terminating the incubation by rapid filtration and three 200 μl washes with cold Tris buffer. After the filter plates dried, microscint 20 was added to each well, the plate sealed and counted for determination of disintegrations per minute. The displacement curves were graphed and the resulting Ki values determined utilizing Graphpad Prism.

hCB1-CHO membranes = molecular target: T2, hCB1-CHO membranes (Homo sapiens, UniProt P21554); assay: CB1 in vitro functional assay, SPA based GTP-γ-35S binding, agonist mode (whole membrane capture); format: biochemical; conditions: normalized to methanandamide, read-out: relative EC50 value for CB1
T2 construct: expressed in transfected cells; host or cells: CHO cells
Protocol: (§3) CB1 and CB2 In Vitro Functional Assays
(§4) Exemplified compounds are tested in agonist mode using a SPA based GTP-γ-^35S binding assay. All assay components are prepared in assay buffer made up of 20 mM HEPES, 100 mM NaCl, 5 mM MgCl2, (pH 7.4 at room temperature). Semi-log compound dilutions are done in assay buffer containing BSA (final 0.125%). GTP-γ^35-S binding is measured in a 96 well format using a whole membrane capture technique for the CB1 assay and modifications of an antibody capture technique previously described (DeLapp et al. J Pharmacol Exp Ther 289:946-955, 1999) for the CB2 assay. All incubations are done at room temperature.
hCB1-CHO membranes, GDP (1 uM final), and saponin (10 ug/mL final) are added to assay buffer and homogenized. Diluted compounds, GTP-γ-^35S (500 nM final) and membranes are added to the assay plate and incubated for 30 minutes. Then 1 mg/well Wheatgerm Agglutinin SPA bead is added, and the plates are sealed, vortexed, and incubated for an additional hour. Plates are then centrifuged at 700×g for 10 minutes and counted for 1 minute per well using a scintillation counter.
To analyze data, first subtract background from all wells. Determine percent agonist efficacy by normalizing agonist/inverse agonist dose response data to a full agonist (methanandamide) response. Analyze the data using a 4-parameter logistic reduced fit with Activity Base and XLFit3.

human CB2 receptor = molecular target: T3, human CB2 receptor (Homo sapiens, UniProt P34972); assay: Displacement of 3H-CP55940 from human CB2 receptors; format: binding; conditions: displacement of 3H-CP55940, human CB2 membrane homogenates
T3 construct: expressed in transfected cells
Protocol: as §1, §2

hCB2-Sf9 membranes = molecular target: T4, hCB2-Sf9 membranes (Homo sapiens, UniProt P34972); assay: CB2 in vitro functional assay, SPA based GTP-γ-35S binding, agonist mode (antibody capture); format: biochemical; conditions: normalized to methanandamide, read-out: relative EC50 value for CB2
T4 construct: expressed in transfected cells; host or cells: Sf9 insect cells
Protocol: as §3, §4
hCB2-Sf9 membranes and GDP (1 uM final) are added to assay buffer and homogenized. Diluted compounds and membranes are added to the assay plate and pre-incubated for 15 minutes. This is followed by addition of GTP-γ-^35S ([…] final) and another 35 minute incubation. Next a mixture containing Nonidet P40 detergent (0.2% final), anti-Gi antibody (final dilution of 1:362), and 1.25 mg anti-rabbit antibody scintillation proximity assay beads are added. The plates are then sealed, vortexed, and incubated for an additional 2 hours before centrifuging and counting as for CB1.
To analyze data, first subtract background from all wells. […]

male Lewis rats = assay: Monoiodoacetate (MIA) model, incapacitance testing; format: in vivo; conditions: dosed once, rat MIA model
Protocol: Monoiodoacetate (MIA) Model
For all studies male Lewis rats of approximately 8 weeks of age at the time of MIA injection are used to measure pain in the MIA model. The rats are housed in groups of 2 or 3 per cage and maintained in a constant temperature and on a 12 hour light/12 hour dark cycle. Animals have free access to food and water at all times except during data collection.
In the standard MIA model the right knees of each rat are injected with 0.3 mg MIA in 50 ul of saline and the left knees with 50 ul of saline. Pain is measured at varying times after MIA injection (not normally before 10 day post MIA injection) using incapacitance testing. This measures the difference in hind paw weight bearing between the MIA and saline injected knees, and each measurement is the average of 3 separate measurements each measured over 1 second.
For studies with CB2 agonists rats are randomized into dose groups (n=5 or 6) and then dosed once with the compound under investigation. Dosing is staggered by 15 minutes for each rat and at a predetermined time post-dose (usually 2 hours), pain measured using incapacitance testing. Studies are routinely run with 4 groups, vehicle (1% carboxy methyl cellulose in water plus 0.25% polysorbate 80) and 3 compound groups which can be either single compounds at a single dose or the same compound at 3 doses. Results are reported as the difference in weight bearing between saline and MIA injected knees and statistical comparisons are made between vehicle treated and compound treated animals to assess the effect of compounds on knee pain in the model.

[1] = tested on: Male Harlan Sprague-Dawley rats; assay: Animal model of dural plasma protein extravasation (PPE); format: in vivo; conditions: 10 mg/kg, 2 hours post po dose, rat; saline controls approximately 2.0, full prevention approximately 1.0

T3 sequence (P34972 whole entry): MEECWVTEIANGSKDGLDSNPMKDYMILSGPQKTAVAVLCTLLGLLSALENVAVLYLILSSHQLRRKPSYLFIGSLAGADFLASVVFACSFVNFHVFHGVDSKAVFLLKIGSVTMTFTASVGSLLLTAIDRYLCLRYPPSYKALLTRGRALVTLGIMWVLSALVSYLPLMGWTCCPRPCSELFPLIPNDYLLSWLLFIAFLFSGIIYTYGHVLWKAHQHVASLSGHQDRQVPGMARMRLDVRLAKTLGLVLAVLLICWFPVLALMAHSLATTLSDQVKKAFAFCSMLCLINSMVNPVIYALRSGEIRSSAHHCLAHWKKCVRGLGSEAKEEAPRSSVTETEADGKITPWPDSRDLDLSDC
T4 sequence (P34972 whole entry): as above
T2 sequence (P21554 whole entry): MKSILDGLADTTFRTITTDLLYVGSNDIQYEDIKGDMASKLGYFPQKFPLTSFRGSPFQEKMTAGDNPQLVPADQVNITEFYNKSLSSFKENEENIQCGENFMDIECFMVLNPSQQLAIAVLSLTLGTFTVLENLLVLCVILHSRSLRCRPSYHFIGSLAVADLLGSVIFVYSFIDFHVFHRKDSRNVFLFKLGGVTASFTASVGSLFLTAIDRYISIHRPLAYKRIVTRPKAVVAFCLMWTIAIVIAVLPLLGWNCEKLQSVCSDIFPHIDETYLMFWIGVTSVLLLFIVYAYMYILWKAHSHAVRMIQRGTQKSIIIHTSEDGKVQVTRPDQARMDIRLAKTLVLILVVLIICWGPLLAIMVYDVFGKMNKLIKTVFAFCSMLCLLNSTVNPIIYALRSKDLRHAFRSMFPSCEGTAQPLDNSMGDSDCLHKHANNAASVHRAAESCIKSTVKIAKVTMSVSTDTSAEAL

Row | SMILES | Ki (rat CB2 receptor) | EC50 (hCB1-CHO membranes) | Ki (human CB2 receptor) | EC50 (hCB2-Sf9 membranes) | pain versus vehicle (difference in hind paw weight bearing) (male Lewis rats; dose 0.3 mg/kg) | pain versus vehicle (difference in hind paw weight bearing) (male Lewis rats; dose 1 mg/kg) | extravasation ratio (stimulated side over unstimulated side of dura) [1] | other results
1 | CCN1CCN(c2nc(C)nc3c2nc(-c2ccccc2Cl)n3CCS(C)(=O)=O)CC1 [Example 2, 8-(2-Chlorophenyl)-6-(4-ethylpiperazin-1-yl)-2-methyl-9-(2-methylsulfonylethyl)purine hydrochloride] | 48.7 nM | 5560 nM | 28.4 nM | 17.2 nM | – | – | – | –
2 | Cc1nc(N2CCN(C)CC2)c2nc(-c3ccccc3Cl)n(CCS(C)(=O)=O)c2n1.Cl [Example 1, 8-(2-Chlorophenyl)-6-(4-methylpiperazin-1-yl)-2-methyl-9-(2-methylsulfonylethyl)purine hydrochloride] | – | – | – | – | reduce pain versus vehicle | reduce pain versus vehicle | 1.12 | –
3 | COC(=O)NCCn1c(-c2ccccc2Cl)nc2c(N3CCN(CCF)CC3)nc(C)nc21 [Example 16, Methyl N-[2-[8-(2-chlorophenyl)-6-[4-(2-fluoroethyl)piperazin-1-yl]-2-methyl-purin-9-yl]ethyl]carbamate hydrochloride] | – | > 100000 nM | – | 13.5 nM | – | – | – | –
4 | CCN1CCN(c2nc(C)nc3c2nc(-c2ccccc2Cl)n3CCNC(C)=O)CC1.Cl [Example 7, N-[2-[8-(2-Chlorophenyl)-6-(4-ethylpiperazin-1-yl)-2-methyl-purin-9-yl]ethyl]acetamide hydrochloride] | – | – | – | – | – | – | 1.18 | –
5 | Cc1nc(N2CCN(C)CC2)c2nc(-c3ccccc3Cl)n(CC#N)c2n1 [Example 3, 2-[8-(2-Chlorophenyl)-2-methyl-6-(4-methylpiperazin-1-yl)purin-9-yl]acetonitrile hydrochloride] | 12.6 nM | – | 27.8 nM | – | – | – | – | –
6 | CC(=O)NCCn1c(-c2ccccc2Cl)nc2c(N3CCN(CCF)CC3)nc(C)nc21.Cl [Example 17, N-[2-[8-(2-chlorophenyl)-6-[4-(2-fluoroethyl)piperazin-1-yl]-2-methyl-purin-9-yl]ethyl]acetamide hydrochloride] | – | – | – | – | reduce pain versus vehicle | reduce pain versus vehicle | – | pain versus vehicle (difference in hind paw weight bearing) (male Lewis rats; dose 0.1 mg/kg): reduce pain versus vehicle
